Measured values published in patent publication US20210023089A1, “Compositions Useful for Treating Herpes Simplex Keratitis, and Methods Using Same” (priority 2013, published 2021).

Tests used:
[1] = test system: dlsptk strain of HSV-1 (TK mutant); assay: qPCR of genome replication of drug-resistant HSV-1 in hTCEpi cells; type: cell-based
Procedure: All cells were cultured at 37° C. and 5% CO2 and supplemented with 100 U/mL penicillin and […]. Human corneal epithelial cells immortalized with hTERT (hTCEpi; Robertson, et al., 2005, Invest Ophthalmol Vis Sci. 46:470-478) were grown in complete keratinocyte growth medium 2 (KGM-2; Lonza, Basel, Switzerland). African green monkey kidney fibroblasts (CV-1; American Type Culture Collection, Manassas, Va.) were grown in Dulbecco's modified Eagle's medium (DMEM; Cellgro, Manassas, Va.) supplemented with 10% FBS. The KOS strain of HSV-1 was used in the in vitro and ex vivo infections, whereas McKrae strain was used for in vivo mouse experiments, and TK mutant dlsptk strain (Coen et al., 1989, Proc Natl Acad Sci USA 86:4736-4740) was used in the drug resistance experiments. All viral stocks were titered on CV-1 monolayers.
(§1) The following strains of HSV-1 were used: KOS, ICPO-null, HFEM, and tsB7. Subconfluent monolayers of cells were grown in six-well plates. Drug treatments were administered 45 minutes prior to infection and continued for the entire duration of each experiment. Unless indicated otherwise, KU-55933 (Batch No. 5, 99.7% purity; Tocris Bioscience, Bristol, UK) was used at 10 μM final concentration, phosphonoacetic acid (PAA) at 400 μg/mL (Sigma-Aldrich, St. Louis, Mo.), and acyclovir at 50 μg/mL (Sigma-Aldrich). KU-55933 was dissolved in dimethyl sulfoxide (DMSO), and the final concentration of DMSO in both KU-55933 and mock treatment in the in vitro and the ex vivo experiments was 0.1%.
(§2) Viral genome replication and transcription were measured by quantitative PCR (qPCR). Total DNA and RNA from infected cells were isolated using the DNeasy Blood & Tissue Kit and the RNeasy Mini Kit, respectively (QIAGEN, Hilden, Germany). RNA was converted to cDNA using qScript (Quanta BioSciences, Gaithersburg, Md.). […] Transcription of the three gene families was measured with primers for RL2 (ICPO), UL30 (DNA polymerase catalytic subunit), and UL44 (gC), with reference primers for the 18S ribosomal RNA (rRNA).

HSV-1 = assay: qRT-PCR of viral transcripts in HSV-1 infected hTCEpi cells; type: cell-based, HSV-1 (KOS strain); details: MOI 0.1, 10 μM, 16 hpi
Procedure: as §1
as §2, with “Md.). Real-time qPCR was performed with SYBR Green (Bio-Rad, Hercules, Calif.).” for “Md.).”

human corneas = type: cell-based
Procedure: Human corneas were obtained from the Lions Eye Bank of Delaware Valley. Rabbit corneas were excised from intact fresh eyeballs of young (8-12 weeks) albino rabbits (Pel-Freez Biologicals, Rogers, Ark.). Protocol (Alekseev et al., 2012, J Vis Exp 69:e3631) for ex vivo corneal culture, infection, and treatment was followed closely. Briefly, corneoscleral buttons were excised and rinsed in PBS containing 200 U/mL penicillin and 200 μg/mL streptomycin. The endothelial concavity was filled with culture medium containing 1% low melting temperature agarose. The corneas were cultured epithelial side up in MEM medium supplemented with nonessential amino acids (1×), 2 mM […], 200 U/mL penicillin, and 200 μg/mL streptomycin. The next day, they were infected with 1×10^4 plaque forming units (PFU)/cornea of strain KOS HSV-1 for 1 hour, rinsed, and overlaid with fresh medium. Drug treatments were administered at the same concentrations as for cultured cells. For KU-55933 bioavailability assessment, corneas were treated with bleomycin (200 μg/mL) for 1 hour. The epithelial cell layer was collected by scraping to isolate DNA or protein. […] Treatment toxicity was assessed by briefly staining the cornea with fluorescein (1% wt/vol in PBS) and imaging the epithelial defects with 464-nm wavelength blue light (LDP LLC, Carlstadt, N.J.).

Question: `O=c1cc(-c2cccc3c2Sc2ccccc2S3)oc(N2CCOCC2)c1` [KU-55933, 2-(morpholin-4-yl)-6-(thianthren-1-yl)-pyran-4-one] was tested. Which “genome replication of dlsptk strain (qPCR)” value ([1]; MOI 0.1, 16 hpi, KU-55933 10 μM, acyclovir 50 μg/mL) did it give?
Answer: markedly suppress

Question: And the “inhibitory effect on dlsptk infection compared with KOS infection” value ([1]; MOI 0.1, KU-55933 10 μM, 16 hpi)?
Answer: as potent as its effect on KOS infection

Question: And the “levels of viral transcripts (ICP0, DNA polymerase, glycoprotein C)” value (HSV-1)?
Answer: reduced

Question: What about the “surface defects of explanted human corneas” value (human corneas) of the same compound?
Answer: did not develop any surface defects
